Reference: the Biogen ADME set (Fang et al. 2023)
≈ marks a conversion by molar mass, not a printed value.

Conditions: for aqueous solubility: pH 6.8

Row | SMILES | MDR1-MDCK efflux ratio | intrinsic clearance, human liver microsomes [mL/min/kg] | intrinsic clearance, rat liver microsomes [mL/min/kg] | aqueous solubility [µg/mL] | fraction unbound, human plasma | fraction unbound, rat plasma
1 | CC(C)NC(=O)c1cc(-c2ccccc2)n(-c2ccccn2)n1 | 0.762 | 8.11 | 80.5 | 54.1 (≈ 176 µM) | – | –
2 | Cc1cc(CN2CC(O)(CC#N)C2)ccc1F | 0.602 | 15 | 703 | – | – | –
3 | C#CCOc1ccc(C(=O)NN2CCCC2=O)cc1 | 1.32 | ≤ 4.74 | ≤ 10.7 | 25.3 (≈ 97.9 µM) | – | –
4 | Cc1ccccc1-n1nc(C(C)(C)C)cc1N | 0.607 | 6.55 | ≤ 10.7 | 44.8 (≈ 195 µM) | – | –
5 | Cc1ccc(-n2nc(NCc3cnn(C)c3)cc2C)cc1 | 0.727 | ≤ 4.74 | 70.4 | – | – | –
6 | CC(C)S(=O)(=O)c1ccc2nccc(Nc3ccc4scnc4c3)c2c1 | 14.6 | – | – | 38.5 (≈ 100 µM) | – | –
7 | O=C(O)c1ccc(N2CCCC2)c(F)c1 | 0.865 | ≤ 4.74 | 14.4 | 27.3 (≈ 130 µM) | – | –
8 | CN(C(=O)c1cncc(F)c1)c1cccc2ncccc12 | 2.74 | 22.2 | 134 | 61.8 (≈ 220 µM) | – | –
9 | CN1[C@@H]2CC[C@H]1C[C@H](OC(c1ccccc1)c1ccccc1)C2 | 7.37 | 9.86 | 1090 | 52.1 (≈ 169 µM) | 0.128 | 0.152
10 | Cc1ccc(S(=O)(=O)N2CCC(c3nnc(-c4cccnc4)o3)C2)cc1 (stereo unspecified) | 2.87 | 41.7 | 591 | – | – | –
11 | CNCc1cc(N(C)C)nc(C2CCCN2C(=O)c2ccccc2-c2ccccc2)n1 (stereo unspecified) | 65.4 | 30.8 | 228 | – | – | –
12 | Cc1ccc(-n2cc[nH]c(=O)c2=O)cc1 | 1.05 | ≤ 4.74 | ≤ 10.7 | 42.9 (≈ 212 µM) | – | –
13 | C[C@H]1CN(Cc2c(Cl)cccc2C(F)(F)F)C[C@@]1(CC(=O)O)C(=O)NC1CCN(CC2=CCCCC2)CC1 | 80.8 | – | – | – | – | –
14 | COc1nc(C)nc(N(C)Cc2nccs2)c1C | 0.467 | 131 | 508 | 29.8 (≈ 113 µM) | – | –
15 | Nc1nc(N)c2c(Cl)c(Br)ccc2n1 | 0.574 | 7.36 | 84.7 | 24.6 (≈ 90 µM) | – | –
16 | COCC1(C(=O)N(C)Cc2ccc3ccccc3n2)CCC1 | 1.14 | 59.9 | 4180 | – | – | –
17 | CC(=O)Nc1ccc2nc(N3CCOCC3)sc2c1 | 0.807 | ≤ 4.74 | 23.1 | 44 (≈ 159 µM) | – | –

Row | SMILES | MDR1-MDCK efflux ratio | intrinsic clearance, human liver microsomes [mL/min/kg] | intrinsic clearance, rat liver microsomes [mL/min/kg] | aqueous solubility [µg/mL] | fraction unbound, human plasma | fraction unbound, rat plasma
18 | COC(=O)N1CC(NCc2c(C)nn(C(C)(C)C)c2C)C1 | 1.79 | ≤ 4.74 | 61.2 | – | – | –
19 | CCn1nc(C2CCCC2)nc1-c1ccncc1 | 0.716 | 24.6 | 370 | 27 (≈ 111 µM) | – | –
20 | Cc1cc(CSCc2c(C)noc2C)no1 | – | 130 | 1910 | – | – | –
21 | Cc1ccc(C(=O)N(C)Cc2c(C)noc2C)cn1 | 1.35 | ≤ 4.74 | ≤ 10.7 | 40.8 (≈ 157 µM) | – | –
22 | COCc1nn(CCCN2CCCCC2)c(=O)o1 | 0.662 | ≤ 4.74 | 370 | – | – | –
23 | COc1ccccc1-c1nc(-c2ccc(NC(C)=O)cc2)c(C)s1 | – | – | – | 0.73 (≈ 2.16 µM) | – | –
24 | Cc1noc(-c2ccc(-c3ccc(CC(=O)O)cc3)cc2)c1NC(=O)O[C@H](C)c1ccccc1Cl | 7.69 | ≤ 4.74 | 19.5 | 10.4 (≈ 21.2 µM) | – | –
25 | Cc1cccc(COc2cccc(/C=C3\C(=O)NN(c4ccccc4)C3=O)c2)c1 | – | 66.3 | 294 | 5.16 (≈ 13.4 µM) | – | –
26 | CC#CC(=O)N1CC[C@@H](n2cc(-c3ccc(Oc4c(F)cccc4F)cc3)c3c(N)n[nH]c(=O)c32)C1 | 50.2 | 41.7 | 519 | 2.7 (≈ 5.52 µM) | 0.00845 | 0.00935
27 | Cc1cccc2sc(NC(=O)C(C)(C)C)nc12 | 0.352 | 36.5 | 207 | 22.6 (≈ 91.1 µM) | – | –
28 | c1ccc(C2(c3ccccc3)CCCN(Cc3nnc(C4CC4)o3)C2)cc1 | 0.685 | 246 | 1200 | 35.6 (≈ 98.9 µM) | – | –
29 | CN(Cc1cnn(C)c1)C(=O)c1ccccc1-c1ccccc1C#N | 19.3 | 64 | ≤ 10.7 | 40.4 (≈ 122 µM) | – | –
30 | Cc1ccc(-c2nnc([C@H]3CCN(Cc4cc5ccccc5o4)C3)o2)cc1 | 0.679 | 49.2 | 663 | 15.9 (≈ 44.2 µM) | – | –
31 | O=C(Nc1ccc(COC2CCCC2)cc1)N1CCC(CO)CC1 | 5.55 | ≤ 4.74 | 329 | – | – | –
32 | CS(=O)(=O)CCc1nc(C2(c3ccccc3)CC2)nn1-c1ccccc1 | 5.9 | 5.64 | 131 | 30.6 (≈ 83.3 µM) | – | –
33 | COCCOc1ccc(N2CCN(CCn3ncc4c3nc(N)n3nc(-c5ccco5)nc43)CC2)cc1 | – | – | – | 0.9 (≈ 1.79 µM) | – | –
34 | N#CC1(CN2CCc3cc(-c4ccccc4)oc3C2)CC1 | 0.273 | 72.7 | 503 | 30.3 (≈ 109 µM) | – | –

The remaining lines, values ahead:

Row | MDR1-MDCK efflux ratio | intrinsic clearance, human liver microsomes [mL/min/kg] | intrinsic clearance, rat liver microsomes [mL/min/kg] | aqueous solubility [µg/mL] | fraction unbound, human plasma | fraction unbound, rat plasma | SMILES
35 | 0.43 | 87.6 | 615 | – | – | – | O=C1c2ccccc2C(=O)N1CCNc1ccc(F)cc1
36 | 1.05 | 10.1 | 218 | 25 (≈ 95.7 µM) | – | – | CCC(=O)NCc1cc(C2CC2)n(C2CCCC2)n1
37 | 4.21 | 582 | 3140 | 39.8 (≈ 99.8 µM) | – | – | COc1ccc(OC)c(S(=O)(=O)Nc2cccc(CCc3ccccn3)c2)c1
38 | 48.1 | 63.7 | 400 | – | 0.19 | 0.223 | O=C1CCCC[C@@H]2[C@H](C[C@@H](Cc3ccccc3F)N2C(=O)c2cccc3ncccc23)N1
39 | 34.6 | 36.6 | 597 | – | – | – | O=C(Cn1nc(Cc2ccccc2)c2ccccc2c1=O)NCCc1c[nH]cn1
40 | 54.9 | ≤ 4.74 | 30.9 | 42.5 (≈ 128 µM) | – | – | Cn1ccc2c(C(=O)Nc3ncn(Cc4cccnc4)n3)cccc21
41 | – | – | – | 16 (≈ 51.2 µM) | – | – | CN(Cc1cnccn1)C(=O)c1cc(-c2ccc(F)cc2)on1
42 | 0.573 | 103 | 906 | – | – | – | O=c1c2oc3ccccc3c2ncn1Cc1ccc(Cl)cc1
43 | 25.7 | ≤ 4.74 | 28.9 | 80.4 (≈ 313 µM) | – | – | Cc1nccc(C2CCN(Cc3ncc[nH]3)CC2)n1
44 | 31.2 | 12.1 | 553 | 44.9 (≈ 113 µM) | – | – | CC(=O)NCCCOc1ccc(CN2C[C@H](Oc3cccc(C)c3)[C@@H](O)C2)cc1
45 | 0.664 | ≤ 4.74 | 99.9 | 39.9 (≈ 183 µM) | – | – | CNC(=O)Cn1ccc2cc(OC)ccc21
46 | – | ≤ 4.74 | 17.4 | – | – | – | O=C(NO)c1cnc(NC2(c3ccccc3)CC2)nc1
47 | 9.33 | 101 | 417 | 2.8 (≈ 8.11 µM) | – | – | COCc1ccccc1CNc1ccc2nnc(-c3ccccc3)n2n1
48 | 1.92 | 273 | 2410 | 50.6 (≈ 129 µM) | – | – | Cc1nn(C)cc1CNc1nc(-c2cnccn2)nc2sc3c(c12)CCCC3
49 | 10.3 | ≤ 4.74 | 298 | – | – | – | CC(=O)N1CCN(C(=O)CS(=O)(=O)C23CC4CC(CC(C4)C2)C3)CC1
50 | 3.3 | 36.9 | 1120 | – | – | – | COc1ccc(CN[C@@H]2CCC[C@H]2Cc2cc(C)no2)cc1OC
51 | 54.7 | ≤ 4.74 | ≤ 10.7 | 37.3 (≈ 137 µM) | – | – | CCn1nccc1-c1cc(CC2CCNCC2)ncn1
52 | 0.442 | 75.3 | 477 | 11.8 (≈ 43.2 µM) | – | – | CN(Cc1cccc(C#N)c1)c1cnc2ccccc2n1
53 | – | 60.9 | 373 | – | – | – | O=C(NCCN1CCC(n2c(=O)[nH]c3cc(Cl)ccc32)CC1)c1ccc(F)cc1
54 | 9.97 | 14.6 | 767 | 69.4 (≈ 167 µM) | – | – | CN(Cc1ccccc1Br)C(=O)Nc1ccc(C(=O)N2CCCC2)cc1
55 | 19.9 | ≤ 4.74 | 20.3 | 70 (≈ 218 µM) | – | – | CN1CCCN(C(=O)NCCOc2ccc3c(c2)OCO3)CC1
